Test results from publication PMC3251867 (British Journal of Cancer, 2011).
Several values for one entry are separate records, joined by “and”; a condition that tells them apart may be missing. Identical values can stand only once. Entries after “also recorded” stand apart in the source; their conditions may differ. Like-named read-outs stand apart in the source and are kept apart here. Marks after values point to notes of the source that are not given here. Values belong to the compound of their own block, whether it stands above or below them.

Tests used:
[1] = CRA trough plasma concentrations (LC-MS/MS); type: in vivo, human
Method: Cis retinoic acid PK studies were performed during the first 2 cycles of therapy. Serial sampling of venous blood was obtained at the following times: pre-treatment on Cycle 1, days 1, 2, 3, 4, 8, and 15 and pre-treatment on Cycle 2, days 1, 15, 16, 17, and 22. Blood samples were collected in heparinised tubes and were processed by centrifugation within 30 min at 1000 g at 4 °C for 10 min. Plasma was stored at −20 °C until analysis using a validated LC-MS/MS analytical method. Briefly, 1 ml plasma was extracted with 5 ml of acetonitrile/n-Butyl chloride (1 : 4, v/v) containing paclitaxel. Cis retinoic acid was separated on a Waters (Milford, MA, USA) X-Terra MS C18 (50 × 2.1 mm, 3.5 μm) column with 0.1% formic acid in acetonitrile/10 mM ammonium acetate (80 : 20, v/v) using isocratic flow of 0.2 ml min^−1 for 5 min. Cis retinoic acid was quantitated over the range of 5–2000 ng ml^−1. Quality control samples were assayed with each analytic run and were within 15% of the nominal concentration. […] Cmin at steady state (Css,min) was calculated for each patient by taking the average of the Cmin during each cycle.
Descriptive statistics were used to summarise patient characteristics, efficacy, and safety data. […] Differences between CRA Css,min during each cycle were evaluated statistically by use of a non-parametric, 2-sided Wilcoxon signed rank test for paired observations. […]

[2] = set-up: method as in Thurn et al, 2011; settings: CRA after administration of a similar dose; ref Thurn et al, 2011; cited from earlier work
[3] = Entinostat plasma pharmacokinetics (LC-MS/MS, non-compartmental analysis); type: in vivo, human; settings: for Cls/F (apparent oral clearance) / half-life / Tmax / Cmax / AUC: plasma; for half-life / Tmax / Cmax / AUC: human; for AUC: read-out: AUC0−∝
Method: Pharmacokinetic studies were performed during the first 2 cycles of therapy. […] Blood samples were collected in heparinised tubes and were processed by centrifugation at 1000 g for 10 min. Plasma was stored at −20 °C until analysis. […] Quality control samples were assayed with each analytic run and were within 15% of the nominal concentration. Individual PK parameters were estimated by standard non-compartmental analysis, which was performed using WinNonlin, Version 5.3 (Pharsight Corporation, Mountain View, CA, USA; [Gibaldi, 1982]). Descriptive statistics were used to summarise patient characteristics, efficacy, and safety data. Pharmacokinetic parameters were summarised by descriptive statistics using dose-normalised parameters for dose-dependent parameters and actual values for dose-independent parameters. Kruskal–Wallis analysis of variance by ranks or the Wilcoxon rank-sum were used to compare the differences in entinostat PK parameters and CRA Css,min as a function of dose level. […] Statistical calculations were performed with the software package JMP, Version 4.0.4 (SAS Institute, Cary, NC, USA). The a priori level of significance was set at P<0.05.

[4] = entinostat oral once weekly (fasting) with 1 mg kg^−1 CRA
Method: A starting dose of 4 mg m^−2 and a fixed CRA dose at 1 mg kg^−1 per dose level were planned. If a patient experienced toxicities the next lower level was 2 mg m^−2. […] Originally six dose levels were included ([…]). Each cohort consisted of three patients according to the standard 3+3 design, where if one patient experiences a DLT, three additional patients are enroled.
Dose-limiting toxicity was defined as first cycle adverse events ⩾grade 3 non-haematological or ⩾grade 4 haematological toxicities. The MTD was defined as one dose level below the dose at which ⩾ two of six patients experience DLT. […] Tumour response assessment was performed every two cycles (2 months) by both clinical assessment and imaging studies.

[5] = system: histone H3 acetylation in PBMCs; test: Western blot of histone H3 acetylation in PBMCs; type: in vivo, human; settings: pre-treatment vs post-treatment time points, entinostat with CRA
Method: (§1) A pre-treatment sample was taken on day 15. During Cycle 2, and subsequent cycles, samples were collected pre-treatment on days 1 and 15. […] Peripheral blood mononuclear cells were collected from patients according to the study calendar schedule. For isolation of PBMCs, 10 ml of blood were collected in CPT tubes (Vacutainer CPT Cell Preparation Tube with NC: 0.45 ml; Ficoll: 1.0 ml; Becton Dickinson, Franklin Lakes, NJ, USA) and plasma was separated by centrifugation. Differential centrifugation of plasma was performed to isolate PBMCs, which were kept frozen at −80 °C until the end of the study schedule for each patient. Fine needle aspiration (FNA) was planned on Cycle 1, day 22 in patients with accessible tumours to assess changes in acetylation and signalling pathway expression. For western blotting, PBMCs and tumour tissue were lysed in M-PER mammalian protein extraction reagent (Pierce, Rockford, IL, USA) with protease inhibitor cocktail (Roche Diagnostics, Indianapolis, IN, USA), followed by brief sonication. Proteins (20 μg per lane) from cell lysates were applied to 4–15% Tris-HCl gels (Bio-Rad, Hercules, CA, USA) and blotted with primary antibodies that were purchased from Upstate (Lake Placid, NY, USA) for anti-acetyl histone H3 and from Sigma (St Louis, MO, USA) for β-actin clone A1978, ERK, and phosphorylated ERK.

[6] = system: acetylated H3 in tumour tissue; test: Western blot of tumour FNA: acetylated H3; type: in vivo, human; settings: FNA of liver lesion, patient with metastatic prostate cancer; entinostat with CRA
Method: as §1

[7] = system: phosphorylated ERK in tumour tissue; test: Western blot of tumour FNA: phosphorylated ERK; type: in vivo, human; settings: FNA of liver lesion, patient with metastatic prostate cancer; entinostat with CRA
Method: as §1

[8] = system: human prostate cancer cell line (LAPC4); test: PSA secretion and PSA gene expression in LAPC4 cells in vitro; type: cell-based
From the text: The sudden rise of tumour marker CA 19-9 in a patient with unresectable pancreatic cancer was worrisome for a rapid clinical progression. However, the CT scan documented stable disease for 6 months. […] An increase in the PSA slope occurred while on treatment, with a rapid deflection following treatment discontinuation. […] This observation poses some challenges as in the clinical development of ‘differentiation’ therapies increasing tumour marker levels may not be a significant sign for disease progression, but rather a potential signal of biological activity. […] Accordingly, the use of tumour markers for disease response assessment is evolving and needs to be further validated in prospective studies. Recently, the Prostate Cancer Clinical Trials Working Group recommended that in most clinical trials early changes in PSA should not be acted on without other evidence of disease progression, and treatment should be continued for at least 12 weeks to ensure adequate drug exposure ([Scher et al, 2008]).

[9] = set-up: method as in Gore et al, 2008; settings: entinostat single agent, 7- or 14-day schedule; ref Gore et al, 2008; cited from earlier work

average Css,min ([1]; Cycle 1, CRA 1 mg kg^−1 per day oral with entinostat): 194.9 ± 103.5 ng/mL | average Css,min ([1]; Cycle 2, CRA 1 mg kg^−1 per day oral with entinostat): 131.8 ± 79.3 ng/mL
Structure (SMILES): CC1=C(/C=C/C(C)=C/C=C/C(C)=C\C(=O)O)C(C)(C)CCC1 [CRA, 13-cis retinoic acid]
steady-state trough concentrations [2]: 160 ± 19 ng/mL

Structure (SMILES): Nc1ccccc1NC(=O)c1ccc(CNC(=O)OCc2cccnc2)cc1 [entinostat]
patients with measurable entinostat concentrations ([3]; 1 week post-treatment): 14 of 17 | Cls/F (apparent oral clearance) ([3]; all dose levels (Total) with CRA, Cycle 1, day 1, mean±s.d., n=13): 14.9±22.0 ^c l h^−1 m^−2 | Cls/F (apparent oral clearance) ([3]; all dose levels (Total) with CRA, Cycle 1, day 1, mean±s.d., n=13, listed as Entinostat): 14.9±22.0 l h^−1 m^−2 | variability in clearance ([3]; entinostat with CRA, patients with solid tumours): 147% | half-life ([3]; oral, all dose levels (Total) with CRA, Cycle 1, day 1, mean±s.d., n=13, read-out: T1/2 (terminal half-life) (converted)): 114 ± 78.2 h | Tmax ([3]; oral, all dose levels (Total, 4 and 5 mg m^−2) with CRA, Cycle 1, day 1, median (range), 18 patients): 0.42 h | Cmax ([3]; po, 4 mg m^−2): 114 ± 84 ng/mL | Tmax ([3]; po, 4 mg m^−2): 0.5 h | AUC ([3]; po, 4 mg m^−2): 587 ± 401 ng·h/mL | half-life ([3]; po, 4 mg m^−2, read-out: T1/2 (converted)): 130 ± 88.5 h | Cmax ([3]; po, 5 mg m^−2): 109 ± 66 ng/mL | Tmax ([3]; po, 5 mg m^−2): 0.25 h | AUC ([3]; po, 5 mg m^−2): 778 ± 648 ng·h/mL | half-life ([3]; po, 5 mg m^−2, read-out: T1/2 (converted)): 77.3 ± 31.9 h | maximum tolerated dose (MTD) [4]: < 5 mg m^−2 and 4 mg m^−2 | histone H3 acetylation in PBMCs [5]: transient increased acetylation | intra-tumoural acetylated H3 [6]: increased; also recorded: induction | phosphorylated ERK protein levels in tumour [7]: decreased; also recorded: inhibition | PSA gene expression [8]: no change | increase in PSA secretion into the culture media ([8]; achievable plasma concentrations of entinostat, data not shown): 2.5 fold | Tmax [9]: ≤ 1 h | variability in clearance [9]: 24–68%
